Experimental data as given in patent publication US11986482B2, “Method of promoting antitumor or anti-cancer immunity” (City University of Hong Kong, priority 2021, dated 2024).

Tests used:
[1] = tested on: HeLa cells; assay: DQ-BSA endocytic trafficking assay; assay type: cell-based; conditions: 1 μM, 3 h then 6 h with 10 μg/ml DQ-green BSA, flow cytometry
Method: A DQ-BSA endocytic trafficking assay screens these compounds. DQ-BSA, a self-quenching dye, is internalized into the cytoplasm by endocytosis, after which it is delivered to the lysosomes for degradation to relieve fluorescence-quenching, resulting in bright fluorescence in cells. HeLa cells are plated on 6-well plates and treated with the indicated compound for 3 h. Then, cells are replaced with Trafficking media containing 10 μg/ml DQ-green BSA with or without drugs (1 μM) and incubated at 37° C. in a 5% CO2 humidified cell culture chamber another 6 h followed by Flow cytometry analysis. […] Inventors also test whether these hit compounds can inhibit the recycling endosomal pathway by performing the fluorescent transferrin conjugates recycling assay. Iron-bound transferrin interacts with its receptor (TfR) to trigger the internalization of the iron-transferrin-TfR complex via clathrin-mediated endocytosis. Fe^3+ irons are subsequently dissociated from their ligands in the acidic endosome environment and released into the cytoplasm. […] Thus, the fluorescence intensity of fluorescent transferrin conjugates-labeled cells can reflect the recycling endocytic trafficking process. […] Cells are collected for flow cytometry analysis, and the mean fluorescence intensity of transferrin is quantified.

[2] = tested on: PD-L1; assay: Plasma membrane PD-L1 level in HeLa cells (flow cytometry, confocal imaging); assay type: cell-based; conditions: 1 μM, 24 h
Method: Next, inventors assess if 6J1 can compromise PD-L1 trafficking. PDL1-GFP stable expressing HeLa cells are treated with or without 6J1 (1 μM) for 24 h. Cells are fixed and stained with Rab5 or EEA1. Their quantifications of the colocalization are shown in FIGS. 4d and 4e, respectively. […] Inventors thus further quantify cell membrane PD-L1 levels in live cells treated with or without 6J1 by flow cytometry or confocal imaging.
Moreover, ATG5- or LC3-knockout HeLa cells are treated with or without 6J1 (1 μM) for 24 h. The supernatant is collected, and the concentration of the extracellular vesicle is determined using a Nanosight nanoparticle analyzer. The exosomes are also collected and subjected to western blot analysis of the EVs marker and PD-L1 in FIG. 7a. The live cells are also labeled with an anti-PD-L1 antibody in FIG. 7b and subjected to flow cytometry analysis in FIG. 7c. […] In addition, inventors assess whether other autophagy-related genes, e.g., ATG4B, ATG7, Beclin1, and Vps34 are involved in 6J1-mediated exosomal PD-L1 secretion. ATG4B-, ATG7-, Beclin1-, or VPS34-knockout HeLa cells are treated with or without 6J1 (1 μM) for 24 h. The supernatant is collected, and the concentration of extracellular vesicle is determined using a Nanosight nanoparticle analyzer. The exosomes are also collected and subjected to western blot analysis of the EVs marker and PD-L1 in FIG. 7d. The live cells are also labeled with an anti-PD-L1 antibody and subjected to flow cytometry analysis in FIG. 7e.

[3] = tested on: 4T1 cells; assay: 4T1-shNC or 4T1-shRab27A tumors in Balb/c nude mice; assay type: in vivo, mouse; conditions: 30 mg/kg, daily, oral gavage
Method: Inventors also implant control or Rab27a-knockout 4T1 cells into the fat pads of female Balb/c nude mice. The mice are randomly divided (n=4 per group) and treated with either buffer or 6J1 (30 mg/kg, daily) via oral gavage.

[4] = tested on: LL/2 cells; assay: LL/2 mouse lung cancer model in C57BL mice; assay type: in vivo; conditions: 30 mg/kg, daily, oral gavage, 4 weeks
Method: C57BL mice (n=5) are injected subcutaneously with LL/2 cells. After tumors reach around 5 mm in size, the mice are treated with either buffer (PBS) or 6J1 (30 mg/kg, daily, oral gavage) for 4 weeks. After 4 weeks, primary tumors and lungs are collected for analysis (FIGS. 16a and 16b). Tumor volumes are measured daily (p<0.001) in FIG. 16c.

[5] = tested on: HeLa, A549 and MDA-MB-231 cell lines; assay: Cytotoxicity, propidium iodide cell death ratio; assay type: cell-based; conditions: 24 h or 48 h
Method: The inventors also test the cytotoxicity of 6J1 in several cancer cell lines, HeLa, A549 and MDA-MB-231 cell lines. Cells are grown in 96-well plates in triplicate and treated with or without 6J1 at the concentrations of 0, 0.01, 0.1, 1, 10 and 100 μM indicated for 24 h or 48 h. They are then stained with propidium iodide (PI) or Hochest 33342 to measure the cell death ratio and cell number, respectively. […] Inventors also test the cytotoxicity of 6J1 in 4T1 cells. 4T1 cells are plated in 96-well plates in triplicate and treated with or without 6J1 at the concentrations of 0, 0.01, 0.1, 1, 5, 10, 20, 40, 80 and 100 μM indicated for 24 h or 48 h. The cell viability was then quantified via the MTT assay.

[6] = Subchronic toxicity in Balb/C mice, 4 weeks oral; assay type: in vivo, mouse; conditions: 30 mg/kg per day
Method: Last, inventors investigate the in vivo toxicity of 6J1 in mice. 6-week-old Balb/C mice are treated with […] (PEG400/Ethanol/tween80, 1:1:1) or 6J1 (30 mg/kg, per day) via oral route for 4 weeks. Clinical observations, e.g., food consumption, body weight changes, and ophthalmic exams, are performed every three days. Tissue weight index (tissue weight/body weight×100%) are measured. […] 6J1 has no effects on mouse weight gain and weights of various organs (FIGS. 18a and 18b). At the end of experiment, the blood is collected from mice in each group for AST, ALT, and ALP measurement. The mice are then sacrificed, and the major organs are isolated, examined, and subjected to H&E staining.

Which results are given for `OCCOCCN(c1ccccc1)c1nc(N/N=C/c2cccc(I)c2)nc(N2CCOCC2)n1` [Compound 6J1]?
endocytic trafficking (fluorescence intensity of DQ-BSA-labeled cells) [1]: dramatically inhibit endocytic trafficking; 6J1-mediated decrease in the level of PD-L1 at the cell surface ([2]; ATG4B-, ATG7-, Beclin1- or VPS34-knockout HeLa cells): does not affect; 6J1-induced decrease in the level of PD-L1 at the cell surface ([2]; ATG5- or LC3B-knockout HeLa cells): Neither ATG5 nor LC3B knockout impairs; expression of PD-L1 on the surface of cells ([2]; HeLa cells): significantly reduces the expression of PD-L1 on the surface of cells; anti-cancer effect of 6J1 or 6J1 with Rab27a knockout in immunocompromised mice [3]: dramatically abolished; tumor growth of mouse lung cancer [4]: significantly inhibits the tumor growth of mouse lung cancer; cell death ([5]; 0.01-100 μM): induces cell death in a concentration-dependent manner; cell death at effective concentrations ([5]; ≤1 μM): hardly induces any cell death; behavior [6]: no signs of behavior abnormality; liver function test (AST, ALT, ALP in blood) [6]: no apparent changes in liver function test; mouse weight gain [6]: no effects; pathological changes in major organs (H&E staining) [6]: no signs of pathological changes in major organs; weights of various organs (tissue weight index) [6]: no effects
